Data from ChEMBL document CHEMBL4428076 (J Med Chem, 2016).
Active and inactive are the calls of the source. The calls are words filed in the database; no cut-off is given here.

Legend:
[1] = biological target: T1, Mu-type opioid receptor (Homo sapiens, UniProt P35372); assay: Activation of mu opioid receptor-1 (unknown origin) expressed in CHO cells assessed as beta-arrestin-2 recruitment at 10 uM after 90 mins by beta-galactosidase complementation assay; format: cell-based; conditions: 1.5 h
[2] = biological target: Mu-type opioid receptor (Mus musculus) (UniProt P42866); assay: Agonist activity at mouse mu opioid receptor-1 expressed in CHO cell membranes assessed as [35S]GTPgammaS binding incubated for 60 mins by scintillation spectroscopic analysis relative to DAMGO; format: functional
[3] = system: Mus musculus; assay: Antinociceptive activity in sc dosed CD-1 mouse assessed as increase in reaction time measured 15 mins post dose by radiant heat tail flick assay; format: functional; conditions: CD-1, sc, 0.25 h
[4] = biological target: T2, Delta-type opioid receptor (Mus musculus, UniProt P32300); assay: Displacement of [125I]-IBNtxA from mouse delta opioid receptor-1 expressed in CHO cell membranes incubated for 90 mins
[5] = biological target: T3, Mu-type opioid receptor (Mus musculus, UniProt P42866); assay: Agonist activity at mouse mu opioid receptor-1 expressed in CHO cell membranes assessed as [35S]GTPgammaS binding incubated for 60 mins by scintillation spectroscopic analysis; format: functional
[6] = biological target: Delta-type opioid receptor (Mus musculus) (UniProt P32300); assay: Agonist activity at mouse delta opioid receptor-1 expressed in CHO cell membranes assessed as [35S]GTPgammaS binding incubated for 60 mins by scintillation spectroscopic analysis relative to DPDPE; format: functional
[7] = biological target: T2, Delta-type opioid receptor; assay: Agonist activity at mouse delta opioid receptor-1 expressed in CHO cell membranes assessed as [35S]GTPgammaS binding incubated for 60 mins by scintillation spectroscopic analysis; format: functional
[8] = biological target: T4, Kappa-type opioid receptor (Mus musculus, UniProt P33534); assay: Antagonist activity at mouse kappa opioid receptor-1 expressed in CHO cell membranes assessed as inhibition of U50,488H-induced [35S]GTPgammaS binding incubated for 60 mins by scintillation spectroscopic analysis; format: functional
[9] = biological target: T4, Kappa-type opioid receptor; assay: Displacement of [125I]-IBNtxA from mouse kappa opioid receptor-1 expressed in CHO cell membranes incubated for 90 mins
[10] = biological target: T3, Mu-type opioid receptor; assay: Displacement of [125I]-IBNtxA from mouse mu opioid receptor-1 expressed in CHO cell membranes incubated for 90 mins
[11] = species: Mus musculus; assay: animal or person; conditions: CD-1, sc, 0.5 h
Description: Antinociceptive activity in sc dosed CD-1 mouse assessed as increase in reaction time measured 30 mins post dose by radiant heat tail flick assay

[12] = species: Mus musculus; assay: animal or person; conditions: CD-1, sc, 0.5 h; remark: listed apart in the source
Description: Antinociceptive activity in sc dosed CD-1 mouse assessed as increase in latency latency to respond with hind paw lick or shake/flutter measured 30 mins post dose by hot plate test

[13] = system: Mus musculus; assay: Antinociceptive activity in sc dosed CD-1 mouse assessed as increase in reaction time administered twice daily at dosing intervals of 12 hrs for 5 days by radiant heat tail flick assay; format: functional; conditions: CD-1, sc
[14] = system: Mus musculus; assay: Antinociceptive activity in CD-1 mouse assessed as increase in reaction time at 0.75 ug, icv administered on day 6 after MOR1-exon1 antisense oligodeoxynucleotide injection on day 1, 3 and 5 by radiant heat tail flick assay; format: functional, organism-based
[15] = biological target: T1, Mu-type opioid receptor; assay: Inhibition of DAMGO-induced beta-arrestin-2 recruitment at mu opioid receptor-1 (unknown origin) expressed in CHO cells preincubated for 30 mins followed by DAMGO addition measured after 90 mins by beta-galactosidase complementation assay; format: cell-based
[16] = system: Mus musculus; assay: Antinociceptive activity in CD-1 mouse assessed as increase in reaction time at 10 ug, icv administered on day 6 after DOR1-exon3 antisense oligodeoxynucleotide injection on day 1, 3 and 5 by radiant heat tail flick assay; format: functional, organism-based
[17] = biological target: T2, Delta-type opioid receptor; assay: Antagonist activity at mouse delta opioid receptor-1 expressed in CHO cell membranes assessed as inhibition of DPDPE-induced [35S]GTPgammaS binding incubated for 60 mins by scintillation spectroscopic analysis; format: functional

T3 sequence (P42866 whole entry): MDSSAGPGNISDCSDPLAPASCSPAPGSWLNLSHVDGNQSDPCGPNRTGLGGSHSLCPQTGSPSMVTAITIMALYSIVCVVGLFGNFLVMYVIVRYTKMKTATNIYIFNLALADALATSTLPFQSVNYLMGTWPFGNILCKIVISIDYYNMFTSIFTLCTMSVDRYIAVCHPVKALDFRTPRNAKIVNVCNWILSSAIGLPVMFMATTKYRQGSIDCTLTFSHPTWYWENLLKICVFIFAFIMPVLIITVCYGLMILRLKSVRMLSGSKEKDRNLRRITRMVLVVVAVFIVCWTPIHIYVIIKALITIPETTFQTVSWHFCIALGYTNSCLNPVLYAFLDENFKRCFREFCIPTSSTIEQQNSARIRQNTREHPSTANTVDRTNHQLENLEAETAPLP
Mu-type opioid receptor (Mus musculus), sequence (P42866 whole entry): as above
T4 sequence (P33534 whole entry): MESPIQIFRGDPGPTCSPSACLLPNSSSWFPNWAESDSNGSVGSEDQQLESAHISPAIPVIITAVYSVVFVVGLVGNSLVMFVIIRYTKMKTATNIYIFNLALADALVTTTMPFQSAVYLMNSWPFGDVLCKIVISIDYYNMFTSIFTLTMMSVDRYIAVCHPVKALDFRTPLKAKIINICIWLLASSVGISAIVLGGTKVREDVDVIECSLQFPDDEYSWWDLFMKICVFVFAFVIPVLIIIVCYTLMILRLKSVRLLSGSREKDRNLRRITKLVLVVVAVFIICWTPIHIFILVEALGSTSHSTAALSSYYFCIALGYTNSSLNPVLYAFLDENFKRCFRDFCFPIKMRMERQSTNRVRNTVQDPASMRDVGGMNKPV
T2 sequence (P32300 whole entry): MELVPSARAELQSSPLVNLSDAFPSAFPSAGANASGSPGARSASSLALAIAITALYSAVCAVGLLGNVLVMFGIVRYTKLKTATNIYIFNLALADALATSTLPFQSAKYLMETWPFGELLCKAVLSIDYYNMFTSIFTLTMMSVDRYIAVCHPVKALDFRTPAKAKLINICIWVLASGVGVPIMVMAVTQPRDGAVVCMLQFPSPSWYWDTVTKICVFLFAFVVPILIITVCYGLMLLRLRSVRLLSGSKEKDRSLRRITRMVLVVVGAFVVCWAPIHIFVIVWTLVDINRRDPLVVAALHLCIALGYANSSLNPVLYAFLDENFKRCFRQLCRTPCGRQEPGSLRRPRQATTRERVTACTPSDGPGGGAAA
T1 sequence (P35372 whole entry): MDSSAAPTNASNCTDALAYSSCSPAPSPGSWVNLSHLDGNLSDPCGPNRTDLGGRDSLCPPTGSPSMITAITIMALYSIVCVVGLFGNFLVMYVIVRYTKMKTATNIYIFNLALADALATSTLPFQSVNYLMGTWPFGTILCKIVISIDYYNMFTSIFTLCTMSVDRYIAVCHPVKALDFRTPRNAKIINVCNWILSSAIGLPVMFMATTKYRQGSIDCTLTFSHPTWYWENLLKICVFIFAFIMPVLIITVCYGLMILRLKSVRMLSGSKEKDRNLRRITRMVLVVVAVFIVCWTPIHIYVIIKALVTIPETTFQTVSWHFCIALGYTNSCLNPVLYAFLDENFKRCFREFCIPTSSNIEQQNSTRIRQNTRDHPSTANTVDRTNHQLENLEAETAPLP
Delta-type opioid receptor (Mus musculus), sequence (P32300 whole entry): as the sequence (P32300 whole entry) above

In the case of `CC[C@@H]1CN2CCc3c([nH]c4cccc(OC)c34)[C@@H]2C[C@@H]1/C(=C\OC)C(=O)OC`, the Activity [1] is reported as “Not Active”, the Emax [2] is reported as 65% and the ED50 [3] is reported as 166 mg/kg.
`CC[C@@H]1CN2CC[C@]3(Nc4cccc(-c5ccccc5)c4C3=O)[C@@H]2C[C@@H]1/C(=C\OC)C(=O)OC` was tested, and the Activity [1] was “Not Active”, the Emax [2] was 123% and the Ki [4] was 0.8 nM. It also gave an ED50 [3] of 1 mg/kg, an EC50 [5] of 1.4 nM and an Emax [6] of 89%. It also gave an EC50 [7] of 0.83 nM, an IC50 [8] of 171 nM and a Ki [9] of 51 nM. It also gave a Ki [10] of 0.91 nM.
In the case of `C[C@@H](NC(=O)[C@@H](N)Cc1ccc(O)cc1)C(=O)NCC(=O)N(C)[C@@H](Cc1ccccc1)C(=O)NCCO` [DAMGO], the Activity [1] is reported as “Active”.
In the case of `CN1CC[C@]23c4c5ccc(O)c4O[C@H]2[C@@H](O)C=C[C@H]3[C@H]1C5` [MORPHINE], the ED50 [11] is reported as 2 to 2.5 mg/kg, the ED50 [12] is reported as 1.7 mg/kg and the ED50 [13] is reported as 12.1 mg/kg. For the same molecule, the Activity [14] was “inactive”.
With `CC[C@@H]1CN2CC[C@@]3(O)C(=Nc4cccc(OC)c43)[C@@H]2C[C@@H]1/C(=C\OC)C(=O)OC` the Activity [1] was “Not Active”, the Emax [2] was 77% and the ED50 [3] was 0.46 mg/kg. The EC50 [5] was 53 nM, the IC50 [8] was 2520 nM and the inhibition [15] was “Dose-dependent effect”. The Ki [10] was 37 nM.
Molecule `CC[C@@H]1CN2CC[C@@]3(C(=O)c4c(OC)cccc4N3C)[C@@H]2C[C@@H]1/C(=C\OC)C(=O)OC` has a Ki [4] of over 1000 nM, a Ki [9] of over 1000 nM and a Ki [10] of 375 nM.
`CC1(C)SSC(C)(C)[C@@H](NC(=O)[C@@H](N)Cc2ccc(O)cc2)C(=O)NCC(=O)N[C@@H](Cc2ccccc2)C(=O)N[C@H]1C(=O)O` was tested, and the Activity [16] was “inactive”.
For `CC[C@@H]1CN2CC[C@]3(Nc4cccc(-c5ccoc5)c4C3=O)[C@@H]2C[C@@H]1/C(=C\OC)C(=O)OC`, the Activity [1] was “Not Active”, the Emax [2] was 100% and the Ki [4] was 1.5 nM. The ED50 [3] was 1.1 mg/kg, the IC50 [17] was 39 nM and the EC50 [5] was 1.5 nM. For the same molecule, the IC50 [8] was 202 nM, the Ki [9] was 39 nM and the Ki [10] was 0.94 nM.
Molecule `CC[C@@H]1CN2CC[C@@]3(C(=O)c4c(OC)cccc4N3Cc3ccccc3)[C@@H]2C[C@@H]1/C(=C\OC)C(=O)OC` has a Ki [4] of 258 nM, a Ki [9] of 136 nM and a Ki [10] of 249 nM.
In the case of `CC[C@@H]1CN2CC[C@]3(Nc4cccc(C#N)c4C3=O)[C@@H]2C[C@@H]1/C(=C\OC)C(=O)OC`, the Activity [1] is reported as “Not Active”, the Emax [2] is reported as 122% and the Ki [4] is reported as 2.4 nM. For the same molecule, the ED50 [3] was 0.32 mg/kg, the IC50 [17] was 73 nM and the EC50 [5] was 0.7 nM. The IC50 [8] was 721 nM, the Ki [9] was 47 nM and the Ki [10] was 0.5 nM.
With `CC[C@@H]1CN2CC[C@]3(Nc4cccc(O)c4C3=O)[C@@H]2C[C@@H]1/C(=C\OC)C(=O)OC` the Activity [1] was “Not Active”, the Emax [2] was 124% and the Ki [4] was 6.1 nM. For the same molecule, the ED50 [3] was 0.18 mg/kg, the IC50 [17] was 293 nM and the EC50 [5] was 2 nM. The Ki [9] was 170 nM and the Ki [10] was 1.4 nM.
Work on `CC[C@@H]1CN2CC[C@]3(Nc4cccc(OC(C)=O)c4C3=O)[C@@H]2C[C@@H]1/C(=C\OC)C(=O)OC` yielded an Emax [2] of 120%, a Ki [4] of 20 nM and an ED50 [3] of 0.38 mg/kg. The EC50 [5] was 3.9 nM, the Ki [9] was 31 nM and the Ki [10] was 2.5 nM.
For `CC[C@@H]1CN2CC[C@]3(Nc4ccccc4C3=O)[C@@H]2C[C@@H]1/C(=C\OC)C(=O)OC`, the Activity [1] was “Not Active”, the Emax [2] was 116% and the Ki [4] was 2.9 nM. The ED50 [3] was 0.24 mg/kg, the IC50 [17] was 193 nM and the EC50 [5] was 1.4 nM. It also gave an IC50 [8] of 252 nM, a Ki [9] of 19 nM and a Ki [10] of 0.46 nM.
